Measurements from patent US20190284293A1, “COMBINATION THERAPY WITH ANTI-CD73 ANTIBODIES” (BRISTOL-MYERS SQUIBB COMPANY, priority 2016, published 2019).

Legend:
cyno FcγRs = assay: SPR binding of constructs to cyno FcγRs; conditions: read-out: binding affinity to cyno FcγRs
human FcRn = human FcRn (Homo sapiens, UniProt P55899); assay: SPR binding to human FcRn; conditions: strong at pH6, weak binding with fast dissociation at pH 7.4
all other FcγRs = assay: SPR binding of constructs to human FcγRs; conditions: read-out: binding affinity to all other FcγRs
Protocol: Binding of the constructs to human FcγRs was measured via SPR. hCD64 and hCD32a-H131 binding data for IgG1.1 and IgG2 molecules were consistent with expected values for the different Fcs. IgG1.1f is the most inert Fc.

[1] = molecular target: T1, endogenous CD73 activity in Calu-6 cells (Homo sapiens, UniProt P21589); assay: Dual cell line HTRF cAMP assay (Calu-6 and HEK293/A2AR cells); assay type: cell-based
T1 construct: Calu6 (CD73 endogenous expressors; human pulmonary adenocarcinoma cell line); endogenous in cells; host or cells: Calu6 (Calu-6) human pulmonary adenocarcinoma cells
T1 sequence (P21589 27-549): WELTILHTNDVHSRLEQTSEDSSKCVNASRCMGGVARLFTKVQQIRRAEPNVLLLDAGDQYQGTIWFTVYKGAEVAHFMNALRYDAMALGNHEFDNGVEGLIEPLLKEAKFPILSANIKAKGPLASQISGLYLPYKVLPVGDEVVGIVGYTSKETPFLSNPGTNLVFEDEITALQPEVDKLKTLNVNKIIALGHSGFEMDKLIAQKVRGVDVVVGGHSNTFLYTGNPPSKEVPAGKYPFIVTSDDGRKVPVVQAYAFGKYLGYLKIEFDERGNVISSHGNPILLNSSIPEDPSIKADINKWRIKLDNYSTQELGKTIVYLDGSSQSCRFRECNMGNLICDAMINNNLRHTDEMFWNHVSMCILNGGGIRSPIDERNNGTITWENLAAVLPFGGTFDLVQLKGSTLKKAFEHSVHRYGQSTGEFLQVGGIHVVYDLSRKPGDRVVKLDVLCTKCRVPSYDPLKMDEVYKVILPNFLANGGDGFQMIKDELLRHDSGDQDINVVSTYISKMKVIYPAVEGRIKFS
Protocol: CD73 antibodies were serial diluted with PBS buffer containing 0.2% BSA, and plated 5 μl/well in 384 well white bottom proxiplate (PerkinElmer, Waltham, Mass.). Calu-6 cells were harvested and resuspend in PBS containing 0.2% BSA, then 5 μl of cells (300 cells/well) were added to the plate. The cells were incubated with antibodies for 10 minutes at 37° C. […] The cells were further incubated with AMP for 30 minutes at 37° C. During this time, HEK293/A2AR cells were harvested and diluted to 0.4 million/ml in PBS containing 0.2% BSA. They were added into the assay plate at 5 μl/well and continued to incubate at 37° C. for 1 hr. HRTF assays were performed using the homogenous time-resolved fluorescence (HTRE) HiRange cAMP detection kit (Cisbio, Bedford, Mass.) by adding 10 cAMP-conjugated d2 and 10 europium conjugated anti-cAMP antibody in lysis buffer according to the manufacturer's instructions. Plates were incubated at room temperature for 60 minutes and Fluorescence Resonance Energy Transfer (FRET) signals (665 and 615 nM) were read using an EnVision plate reader (PerkinElmer, Waltham, Mass.). The FRET signal was calculated as the ratio of signal from the 665 nm (acceptor) and 615 nm (donor) channels and multiplied by 10,000. IC50 and Ymax were measured. […] All calculations were determined as a percentage of inhibition compared to this control, which was set to 100%.

Chain of human FcRn (P55899 24-297 limits assumed): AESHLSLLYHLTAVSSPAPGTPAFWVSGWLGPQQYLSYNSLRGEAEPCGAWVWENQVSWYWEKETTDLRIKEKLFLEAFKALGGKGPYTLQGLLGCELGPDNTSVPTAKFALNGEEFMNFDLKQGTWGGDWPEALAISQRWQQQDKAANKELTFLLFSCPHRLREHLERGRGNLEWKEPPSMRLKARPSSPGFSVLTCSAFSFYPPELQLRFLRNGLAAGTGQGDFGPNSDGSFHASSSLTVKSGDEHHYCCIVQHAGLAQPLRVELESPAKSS
Chain of human FcRn (P61769 21-119 partner): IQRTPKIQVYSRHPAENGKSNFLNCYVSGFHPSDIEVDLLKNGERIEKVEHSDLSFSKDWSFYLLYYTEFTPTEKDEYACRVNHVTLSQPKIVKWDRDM

| Compound | Kd (cyno FcγRs) | binding to human FcRn (human FcRn) | Kd (all other FcγRs) | IC50 ([1]; cAMP assay) | Ymax ([1]; percentage of inhibition compared to 100 nM 11F11 set to 100%) |
| --- | --- | --- | --- | --- | --- |
| IgG2-C219S-G1.1f: effectorless IgG1/IgG2 hybrid constant region: CH1 and hinge from IgG2 (C219S), CH2 and CH3 of IgG1 (A330S/P331S); SEQ ID NO:169 | > 5000 nM | pH-dependent binding | < 5000 nM |  |  |
| Nc1ncnc2c1ncn2[C@@H]1O[C@H](COP(=O)(O)CP(=O)(O)O)[C@@H](O)[C@H]1O [APCP] |  |  |  | 1.29 nM | 97 |
